This is an account of results in patent US10993935B2, “Compositions and methods for treatment of lung infections” (priority 2018, dated 2021).

Test [1] relates to P. aeruginosa strains. Kind of test: MIC and synergy testing (checkerboard/isobologram) of RFX and TOB. It is filed as cell-based, Pseudomonas aeruginosa. The note with it: strain CF003, NM.
Test [2] concerns P. aeruginosa biofilms. Kind of test: Biofilm reduction assay (crystal violet). Type of test: cell-based, Pseudomonas aeruginosa. Particulars: PAO1, CF001, CF010; 24 h biofilms treated at 3×MIC. As to the method: FIGS. 3A-3B include graphs showing biofilm and cell viability reduction from treatment with TOB and/or RFX, where (FIG. 3A) biofilms were grown for 24 h in a 96-well plate and then treated with TOB, RFX, or TOB and RFX at a concentration of 3×MIC, or where (FIG. 3B) biofilms were grown for 24 h in a 96-well plate and then treated with TOB, RFX, or TOB and RFX at concentration of 3×MIC. Two-way ANOVA analysis was used with statistical significance set as a P value of <0.01 (****, P<0.0001; **, P<0.001; *, P<0.01).
Biofilm Reduction Assay. A biofilm reduction assay was used to determine the reduction of biofilms in P. aeruginosa strains by TOB and/or RFX. Briefly, biofilms were grown in a flat bottom 96-well microplate (Corning) using 200 μl LB of 1.0-1.5×10^5 inoculum of lab and clinical strains of non-mucoid and mucoid P. aeruginosa. After 24-30 h incubation at 37° C., the media was removed, and plates were washed with PBS. New media containing 1-5×MIC90 of TOB and/or RFX was added to the plate in a checkerboard pattern to determine synergy of biofilm reduction. After 24 h incubation at 37° C., the media was removed and 200 μl of 0.1% aqueous crystal violet was added and left at room temperature 0.5 h. […] The plates were then read via OD at 595 nm using SpectraMax i3x plate reader to compare biofilm dispersion between TOB and/or RFX. […]

Test [3] deals with P. aeruginosa PAO1 with bioluminescent operon (luxCDABE). Kind of test: Murine pneumonia model, multiple-dose treatment, lung bacterial load. Type of test: in vivo, DBA/2 mice. Particulars: 300 mg doses at 6, 8 and 10 h post-infection (3× TOB, or RFX then 2× TOB); lungs at 12, 18, 24 h. From the text: FIG. 6 is a graph showing that the addition of RFX to multiple treatments of TOB results in a decrease of CFU per milliliter of P. aeruginosa in mouse lungs. Plot showing the CFU per milliliter counts of mice after being infected with P. aeruginosa and left untreated, treated with multiple doses of TOB, or treated with multiple doses of TOB with addition of RFX. Data shown represent average of 2 mice per time point per group. Two-way ANOVA was used to test for statistical significance with a P value of <0.01 (****, P<0.0001).
Female DBA/2 mice were infected at 0 hour and split into 3 experimental groups of 8: no treatment; treatment with 300 mg TOB at 6, 8, and 10 h post-infection; or treatment with 300 mg RFX at 6 h and 300 mg TOB at 8 and 10 h post-infection. Two mice from each group were sacrificed at 12, 18, and 24 h post-infection. Lungs from sacrificed mice were homogenized in 1% PPBS and tested for bacterial growth to determine CFU load per mouse. Bacteria grown were also imaged for evidence of bioluminescence. Two mice from each group were left to observe for survival.
Based on the efficacy seen with the single dose treatment a multiple dose study was used to replicate clinical treatment conditions seen with CF infections. The efficacy of TOB in multiple doses with or without RFX was determined using the established lung infection model. […]

With `CO[C@H]1/C=C/O[C@@]2(C)Oc3c(C)c(O)c4c(O)c(c5c(nc6cc(C)ccn65)c4c3C2=O)NC(=O)/C(C)=C\C=C\[C@H](C)[C@H](O)[C@@H](C)[C@@H](O)[C@@H](C)[C@H](OC(C)=O)[C@@H]1C` [RFX, rifaximin], in test [1], the “FIC RFX” value stood at 0.25. Besides, the “MIC RFX in Combination” value in test [1] (in combination with TOB) is given as 1.
As to `NC[C@H]1O[C@H](O[C@H]2[C@H](O)[C@@H](O[C@H]3O[C@H](CO)[C@@H](O)[C@H](N)[C@H]3O)[C@H](N)C[C@@H]2N)[C@H](N)C[C@@H]1O` [TOB, tobramycin], the “reduction of preformed biofilm (biofilm aggregates)” value in test [2] is recorded as “significantly reduced biofilm as compared to the untreated control”. For the same compound, the “bacterial growth in the lungs” value in test [3] is on record as “around 10^8 CFUs”.
